Assay results from US20260083743A1, “NUCLEOSIDE DERIVATIVE FOR PREVENTING AND TREATING INFLAMMATION AND APPLICATION THEREOF” (WEST CHINA HOSPITAL OF SICHUAN UNIVERSITY, priority 2019, published 2026).

Key:
C57 mice = test: Toxicity test, 180 consecutive days by gavage in C57 mice; format: in vivo; conditions: 100 mg/kg/D for 180 consecutive days by gavage
Description: In this example, the toxicities of compounds 1-19 prepared in example 1 were analyzed.
C57 mice were given compounds 1-19 at a dose of 100 mg/kg/D for 180 consecutive days by gavage. One hour after the last administration of the drug, the mice were anesthetized by intraperitoneal injection of sodium pentobarbital (40 mg/kg), placed on a constant temperature hot plate at 37±1° C., blood was taken by cardiac puncture or pathological sections were made to detect the side effects (gastrointestinal reaction, nervous system toxicity, hematological toxicity, allergic reaction, nephrotoxicity, hepatotoxicity, rash and asthma) The side effects of aspirin, ibuprofen, indomethacin, phenylbutazone, diclofenac, piroxicam and glucocorticoid groups were investigated according to the same administration method as compounds 1-19.

arthritis model = test: Improvement effect on arthritis, sodium iodoacetate knee joint model in SD rats; format: in vivo; parameters: Pathological tissue score (joint): scale not given here; conditions: gavage every day 100 mg/kg/d; 4th week after operation; n = 10
Description: In this example, the improvement effect of compounds 1˜19 prepared in example 1 on arthritic was measured. (1) Animals: SD rats, four rates in one cage, were fed under the conditions of constant temperature (25±2° C.) and illumination control (12 h day/night circulation). The animals were fed with standard feed, and fed for at least 7 days to adapt environment before the experiment. […] (3) SD rats were fasted for 12 hours before operation, and weighed and recorded prior to operation. The blank control group was not treated any more. […] After anesthesia, they were fixed in the supine position. 0.1 ml of 1 g/L sodium iodoacetate solution was injected into the knee joint. From the fifth day, the animals were driven to run for 30 minutes every day, and they were allowed to move freely in the cage the rest of the time. After modeling, indomethacin and compounds 1˜19 were given by gavage every day at the dose of 100 mg/kg/d. The blank control group and the model control group were given equal volume of isotonic saline. At the 4th week after operation, the articular fluid of rats in each group was extracted to measure the content of MMP-13. The rats were killed, and the subchondral bone plate of the inner condyle of the tibia of the right knee was cut and processed into specimens, and pathological scores were made.

mouse hepatitis model = test: Improvement effect on hepatitis, concanavalin A (ConA) mouse hepatitis model; format: in vivo, Blab/c mice; conditions: gavage 50 mg/kg, n = 10
Description: In this example, the improvement effect of compounds 1 19 prepared in example 1 on […] measured. (1) Animals: Adult and Healthy Male Blab/c Mice, 25 30 g. […] The blank control group was injected with equal volume of isotonic saline. After modeling, indomethacin and compounds 1 19 were given by gavage every day at the dose of 50 mg/kg. The blank control group and the model control group were given equal volume of isotonic saline. Eyeball blood and liver tissue were taken at 6 h, 12 h, 24 h and 48 h after administration. The levels of serum alanine aminotransferase (ALT) and aspartate aminotransferase (AST) were measured.

[1] = tested on: sodium taurocholate-induced pancreatitis model; test: Improvement effect on pancreatitis, sodium taurocholate-induced model in mice; format: in vivo, Blab/c mice; parameters: Pancreatic histopathological injury score: scale not given here; conditions: 17.5 mg/kg caudal vein 1 h, 3 h and 6 h after model construction; after 24 hours; n = 10
Source text: In this example, the improvement effect of compounds 1 19 prepared in example 1 on […] measured. (1) Animals: Adult and Healthy Male Blab/c Mice, 25 30 g. […] A model was made with sodium taurocholate. […] After anesthesia, the surgical site was sterilized with an alcohol cotton ball. The sterile gauze was placed on the surgical site. A laparotomy was made at the width of two fingers under the xiphoid process. After seeing the liver, an incision was made, the cotton swab soaked in normal saline was stretched into the enterocoelia, the duodenum was sought on the back of the liver, turned out and placed on the sterile gauze, the pancreaticobiliary duct and duodenal papilla were sought, and the needle of 1 mL syringe was used to pierce a hole on the along the direction of the nipple, a 24 G indwelling needle tube was inserted into the pancreatic duct along the nipple, and the common bile duct below the liver was closed with an arterial vascular clip, with a dose of 0.1 mL/100 g and 0.1 mL/min inject sodium taurocholate with a concentration of 3.8% at a flow rate. During this process, pay attention to adding saline to the exposed pancreas and duodenum to keep it moist. After the injection, the tube was slowly taken out and the bile duct was continued to be closed. The main tube was removed from the vascular artery clip 3 minutes later, the duodenum was also accommodated, and the abdominal cavity was sutured in double layers. The blank control group was injected with equal volume of isotonic saline. […] The blank control group and the model control group were given equal volume of isotonic saline. After 24 hours, pancreatic tissue and blood samples were taken, and the pancreatic histopathological injury score and the level of pancreatic amylase in serum were evaluated.

For `CC(=O)Oc1ccccc1C(=O)O` [Aspirin, aspirin], the “Occurrence rate of side effects” value (C57 mice) was 20%.
In the case of `CC(C)Cc1ccc(C(C)C(=O)O)cc1` (stereo not shown) [Ibuprofen, ibuprofen], the “Occurrence rate of side effects” value (C57 mice) is reported as 20%.
For `COc1ccc2c(c1)c(CC(=O)O)c(C)n2C(=O)c1ccc(Cl)cc1` [Indometacin, indometacin, reference compound], the “MMP-13 content in joint fluid” value (arthritis model) was 195 ± 8 mg/L, the “Pathological tissue score (joint)” value (arthritis model) was 2.1 ± 0.3 and the “Aspartate aminotransferase (AST)” value (mouse hepatitis model; 6 h after administration) was 220 ± 19 U/L. For the same compound, the “Serum alanine aminotransferase (ALT)” value (mouse hepatitis model; 6 h after administration) was 465 ± 43 U/L, the “Aspartate aminotransferase (AST)” value (mouse hepatitis model; 12 h after administration) was 780 ± 82 U/L and the “Serum alanine aminotransferase (ALT)” value (mouse hepatitis model; 12 h after administration) was 1232 ± 113 U/L. For the same compound, the “Aspartate aminotransferase (AST)” value (mouse hepatitis model; 24 h after administration) was 1021 ± 103 U/L, the “Serum alanine aminotransferase (ALT)” value (mouse hepatitis model; 24 h after administration) was 2165 ± 203 U/L and the “Aspartate aminotransferase (AST)” value (mouse hepatitis model; 48 h after administration) was 870 ± 91 U/L. For the same compound, the “Serum alanine aminotransferase (ALT)” value (mouse hepatitis model; 48 h after administration) was 1287 ± 133 U/L and the “Occurrence rate of side effects” value (C57 mice) was 20%.
For `CCCCC1C(=O)N(c2ccccc2)N(c2ccccc2)C1=O` [Baotaisong, phenylbutazone], the “Occurrence rate of side effects” value (C57 mice) was 20%.
For `CN1C(C(=O)Nc2ccccn2)=C(O)c2ccccc2S1(=O)=O` [Piroxicam, piroxicam], the “Occurrence rate of side effects” value (C57 mice) was 20%.
For `CCNCCn1c(=O)c2c(ncn2C)n(C)c1=O` [Compound 12, 1-(2-ethylaminoethyl)-3,7-dimethylxanthine], the “Amylopsin (pancreatic amylase level in serum)” value (“Amylopsin” below) [1] was 4 ± 2 KU/L, the “Pancreatic histopathological injury score” value [1] was 0.4 ± 0.5 and the “MMP-13 content in joint fluid” value (arthritis model) was 83 ± 8 mg/L. For the same compound, the “Pathological tissue score (joint)” value (arthritis model) was 0.3 ± 0.4, the “Aspartate aminotransferase (AST)” value (mouse hepatitis model; 6 h after administration) was 58 ± 7 U/L and the “Serum alanine aminotransferase (ALT)” value (mouse hepatitis model; 6 h after administration) was 76 ± 8 U/L. For the same compound, the “Aspartate aminotransferase (AST)” value (mouse hepatitis model; 12 h after administration) was 93 ± 9 U/L, the “Serum alanine aminotransferase (ALT)” value (mouse hepatitis model; 12 h after administration) was 113 ± 12 U/L and the “Aspartate aminotransferase (AST)” value (mouse hepatitis model; 24 h after administration) was 121 ± 19 U/L. For the same compound, the “Serum alanine aminotransferase (ALT)” value (mouse hepatitis model; 24 h after administration) was 162 ± 16 U/L, the “Aspartate aminotransferase (AST)” value (mouse hepatitis model; 48 h after administration) was 102 ± 9 U/L and the “Serum alanine aminotransferase (ALT)” value (mouse hepatitis model; 48 h after administration) was 121 ± 13 U/L.
`CCCNCCn1c(=O)c2c(ncn2C)n(C)c1=O` [Compound 14, 1-(2-propylaminoethyl)-3,7-dimethylxanthine] was tested, and the “Amylopsin” value [1] was 5 ± 3 KU/L, the “Pancreatic histopathological injury score” value [1] was 1.9 ± 0.4 and the “MMP-13 content in joint fluid” value (arthritis model) was 93 ± 7 mg/L. The “Pathological tissue score (joint)” value (arthritis model) was 0.7 ± 0.3, the “Aspartate aminotransferase (AST)” value (mouse hepatitis model; 6 h after administration) was 65 ± 7 U/L and the “Serum alanine aminotransferase (ALT)” value (mouse hepatitis model; 6 h after administration) was 56 ± 8 U/L. The “Aspartate aminotransferase (AST)” value (mouse hepatitis model; 12 h after administration) was 93 ± 12 U/L, the “Serum alanine aminotransferase (ALT)” value (mouse hepatitis model; 12 h after administration) was 134 ± 15 U/L and the “Aspartate aminotransferase (AST)” value (mouse hepatitis model; 24 h after administration) was 152 ± 15 U/L. The “Serum alanine aminotransferase (ALT)” value (mouse hepatitis model; 24 h after administration) was 193 ± 12 U/L, the “Aspartate aminotransferase (AST)” value (mouse hepatitis model; 48 h after administration) was 119 ± 12 U/L and the “Serum alanine aminotransferase (ALT)” value (mouse hepatitis model; 48 h after administration) was 132 ± 13 U/L.
`O=C(O)Cc1ccccc1Nc1c(Cl)cccc1Cl` [Diclofenac, diclofenac] was tested, and the “Occurrence rate of side effects” value (C57 mice) was 20%.
In the case of `CC(C)n1c(=O)c2c(ncn2C(C)C)n(C)c1=O` [Compound 7, 1,7-diisopropyl-3-methylxanthine], the “Amylopsin” value [1] is reported as 4 ± 2 KU/L, the “Pancreatic histopathological injury score” value [1] is reported as 0.5 ± 0.2 and the “MMP-13 content in joint fluid” value (arthritis model) is reported as 84 ± 5 mg/L. For the same compound, the “Pathological tissue score (joint)” value (arthritis model) was 0.3 ± 0.3, the “Aspartate aminotransferase (AST)” value (mouse hepatitis model; 6 h after administration) was 41 ± 7 U/L and the “Serum alanine aminotransferase (ALT)” value (mouse hepatitis model; 6 h after administration) was 51 ± 8 U/L. For the same compound, the “Aspartate aminotransferase (AST)” value (mouse hepatitis model; 12 h after administration) was 78 ± 8 U/L, the “Serum alanine aminotransferase (ALT)” value (mouse hepatitis model; 12 h after administration) was 93 ± 8 U/L and the “Aspartate aminotransferase (AST)” value (mouse hepatitis model; 24 h after administration) was 101 ± 8 U/L. The “Serum alanine aminotransferase (ALT)” value (mouse hepatitis model; 24 h after administration) was 131 ± 12 U/L, the “Aspartate aminotransferase (AST)” value (mouse hepatitis model; 48 h after administration) was 84 ± 7 U/L and the “Serum alanine aminotransferase (ALT)” value (mouse hepatitis model; 48 h after administration) was 95 ± 12 U/L.
